# From US20160002247A1, “8-SUBSTITUTED IMIDAZOPYRIMIDINONE DERIVATIVE HAVING AUTOTAXIN INHIBITORY ACTIVITY” (THE UNIVERSITY OF TOKYO, priority 2013, published 2016)
# Biological target: T1, Mouse autotaxin enzyme (Mus musculus, UniProt Q9R1E6)
# T1 construct: purchased R&D System
# Experiment: Evaluation of autotaxin inhibitor, Method A (Test Example 1): TG-mTMP fluorescence
# Type: biochemical
# Conditions: Assay Method: Method A (Test Example 1); read-out: Inhibitory Activity (Enzyme Inhibitory Activity, IC50)
# Procedure: (Method A) Evaluation of Autotaxin Inhibitor
# Solution A containing 25 mM Tris-HCl buffer (pH7.5), 100 mM NaCl, 5 mM MgCl2 and 0.1% BSA was prepared. Mouse autotaxin enzyme (purchased from R&D System) was diluted with Solution A, and 5 μL of which was added to a solution of test compound in DMSO. Furthermore, 5 μl of 0.5 μM TG-mTMP in Solution A was added and allowed to react at room temperature for 2 hours. 5 μl of 150 mM EDTA in Solution A was added to quench the reaction, and a fluorescent dye TokyoGreen, which was produced by the reaction, was detected. The fluorescence was detected using ViewLux (PerkinElmer, Inc.) with an excitation wavelength of 480 nm and a fluorescence wavelength of 540 nm.
# The percent inhibition of the test compound was calculated by assuming the sample with no test compound as 0% inhibition and the sample with no enzyme as 100% inhibition, and the percent inhibitions at different concentrations of the test compound were plotted to obtain a concentration-dependent curve.
row,Structure (SMILES),IC50 [nM]
1,COCCOCCOCCn1c(C)cc(=O)n2cc(-c3ccc(Cl)cc3)nc12 [Compound 27],> 1000
2,CCOC(=O)Cn1c(C)cc(=O)n2cc(-c3ccc(F)cc3)nc12 [Compound 30],10 to 100
3,CCOC(=O)Cn1c(C)cc(=O)n2cc(-c3ccc(Br)cc3)nc12 [Compound 31],10 to 100
4,CCOC(=O)Cn1c(C)cc(=O)n2cc(-c3ccc(OC)cc3)nc12 [Compound 32],10 to 100
5,CCOC(=O)Cn1c(C)cc(=O)n2cc(-c3cccc(Br)c3)nc12 [Compound 33],> 1000
6,CCOC(=O)Cn1c(C)cc(=O)n2cc(-c3ccc(Cl)c(Cl)c3)nc12 [Compound 34],10 to 100
7,CCOC(=O)Cn1c(C)cc(=O)n2cc(-c3ccccc3)nc12 [Compound 35],10 to 100
8,CCOC(=O)Cn1c(C)cc(=O)n2cc(-c3ccc([N+](=O)[O-])cc3)nc12 [Compound 36],10 to 100
9,CCOC(=O)Cn1c(C)cc(=O)n2cc(-c3cccc([N+](=O)[O-])c3)nc12 [Compound 37],100 to 1000
10,CCOC(=O)Cn1c(C)cc(=O)n2cc(-c3ccc(N)cc3)nc12 [Compound 38],> 1000
11,CCOC(=O)Cn1c(C)cc(=O)n2cc(-c3cccc(N)c3)nc12 [Compound 39],> 1000
12,CCOC(=O)Cn1c(C)cc(=O)n2cc(-c3ccc(I)cc3)nc12 [Compound 40],10 to 100
